Assay results as given in patent publication US20260325561A1, “4'-SUBSTITUTED NUCLEOSIDES AND NUCLEOTIDES AS ANTIVIRAL AGENTS” (THE SCRIPPS RESEARCH INSTITUTE, priority 2023, published 2026).
pEC50: −log10 of the molar value.

Experiments:
[1] = test system: YFV; assay: microbe, parasite or virus in culture; type: cell-based, YFV strain 17D; settings: Yellow fever virus, HepG2, 24 h, read-out: YFV / HepG2 EC50
[2] = in vitro; settings: human, hepg2 cells
[3] = test system: HCoV-OC43; assay: microbe, parasite or virus in culture; type: cell-based, Human Coronavirus; settings: Betacoronavirus 1, OC43, HCT-8, 48 h, read-out: HCoV-OC43/HCT-8 EC50
[4] = test system: HCoV-229E; assay: microbe, parasite or virus in culture; type: cell-based; settings: Human coronavirus 229E, MRC5, 120 h, read-out: HCoV-229E/MRC5 EC50
[5] = Cytotoxicity, HFF; type: cell-based; settings: human, hff cells; read-out: HCMV/HFF CC50
[6] = test system: RSV A2; assay: microbe, parasite or virus in culture; type: cell-based; settings: human respiratory syncytial virus, HEp-2, 72 h, read-out: RSV A2 / Hep2 EC50
[7] = in vitro; settings: human, hct-8 cells
[8] = test system: CHIKV; assay: microbe, parasite or virus in culture; type: cell-based, CHIKV strain 181/25; settings: Chikungunya virus, HepG2, 24 h, read-out: CHIKV / HepG2 EC50
[9] = test system: ZIKV; assay: microbe, parasite or virus in culture; type: cell-based, ZIKV MR766; settings: Zika virus, HepG2, 24 h, read-out: ZIKV / HepG2 EC50
[10] = in vitro; settings: human, hep2 cells
[11] = in vitro; settings: human, h1 hela cells
[12] = test system: HRV 14; assay: microbe, parasite or virus in culture; type: cell-based, Human Rhinovirus 14 strain 1059; settings: Rhinovirus B, H1-HeLa, 48 h, read-out: HRV / H1 HeLa B 14 EC50
[13] = in vitro; settings: human, mrc5 cells
[14] = test system: SARS-CoV-2; assay: microbe, parasite or virus in culture; type: cell-based, SARS-CoV-2 strain USA-WA1/2020; settings: Severe acute respiratory syndrome coronavirus 2, HeLa-ACE2, 24 h, read-out: SARS-CoV-2 / HeLa-ACE2 EC50
[15] = in vitro; settings: human, hela-ace2 cells
[16] = test system: DENV-2; assay: microbe, parasite or virus in culture; type: cell-based, DENV-2 16681; settings: Dengue virus, DENV2, HepG2, 24 h, read-out: DENV-2 / HepG2 EC50
[17] = test system: HRV 16; assay: microbe, parasite or virus in culture; type: cell-based, Human Rhinovirus 16 strain 11757; settings: Rhinovirus A, H1-HeLa, 48 h, read-out: HRV / H1 HeLa A16 EC50
[18] = test system: HCMV; assay: HCMV/HFF antiviral assay; type: cell-based; settings: Human betaherpesvirus 5, HFF
[19] = mouse or rhesus monkey model; cited from earlier work
[20] = test system: dengue 2′-0-methyltransferase NS5 domain; settings: role: inhibitor; cited from earlier work
[21] = test system: dengue; settings: cited from earlier work
[22] = test system: dengue; settings: cited from earlier work; remark: listed apart in the source
[23] = test system: dengue; settings: cited from earlier work; remark: listed apart in the source
[24] = test system: RNA virus infections; settings: cited from earlier work

| SMILES | pEC50 [1] | CC50 at 72 h [2] | pEC50 [3] | pEC50 [4] | CC50 [5] | pEC50 [6] | CC50 [7] | pEC50 [9] | CC50 [10] | CC50 [11] | pEC50 [12] | CC50 [13] | pEC50 [14] | CC50 at 24 h [15] | pEC50 [16] | pEC50 [17] | pEC50 [18] | also measured |
| --- | --- | --- | --- | --- | --- | --- | --- | --- | --- | --- | --- | --- | --- | --- | --- | --- | --- | --- |
| OC[C@@]1(F)O[C@@H](n2ccc3c(Cl)ncnc32)[C@H](O)[C@@H]1O [Example 4, (2S,3S,4R,5R)-5-(4-chloro-7H-pyrrolo[2,3-d]pyrimidin-7-yl)-2-fluoro-2-(hydroxymethyl)tetrahydrofuran-3,4-diol] | > 7.00 | 10 to 99 µM | 6.00 to 7.00 | < 5.00 | 10 to 99 µM | 6.00 to 7.00 | 10 to 99 µM | 6.00 to 7.00 | 10 to 99 µM | 10 to 99 µM | 6.00 to 7.00 | > 99 µM | 5.00 to 6.00 | 10 to 99 µM | > 7.00 | 6.00 to 7.00 | < 5.00 | pEC50 [8]: 6.00 to 7.00 |
| OC[C@@]1(F)O[C@@H](n2ccc3c(F)ncnc32)[C@H](O)[C@@H]1O [Example 13, (2S,3S,4R,5R)-2-fluoro-5-(4-fluoro-7H-pyrrolo[2,3-d]pyrimidin-7-yl)-2-(hydroxymethyl)tetrahydrofuran-3,4-diol] |  | 1 to 10 µM | 5.00 to 6.00 | < 5.00 | 10 to 99 µM | 6.00 to 7.00 | 10 to 99 µM |  | 10 to 99 µM | 10 to 99 µM | 5.00 to 6.00 | > 99 µM | 6.00 to 7.00 | 10 to 99 µM | > 7.00 | 6.00 to 7.00 | < 5.00 | pEC50 [8]: 6.00 to 7.00 |
| NC(=O)c1cn([C@@H]2O[C@](F)(CO)[C@@H](O)[C@H]2O)c2ncnc(N)c12 [Example 14, 4-amino-7-((2R,3R,4S,5S)-5-fluoro-3,4-dihydroxy-5-(hydroxymethyl)tetrahydrofuran-2-yl)-7H-pyrrolo[2,3-d]pyrimidine-5-carboxamide] |  | < 1 µM | 6.00 to 7.00 | < 5.00 | 1 to 10 µM | > 7.00 | 1 to 10 µM |  | 1 to 10 µM | 1 to 10 µM | < 5.00 | 1 to 10 µM | 6.00 to 7.00 | < 1 µM | > 7.00 | < 5.00 | 6.00 to 7.00 |  |
| Nc1ncnc2c1c(F)cn2[C@@H]1O[C@](F)(CO)[C@@H](O)[C@H]1O [Example 15, (2S,3S,4R,5R)-5-(4-amino-5-fluoro-7H-pyrrolo[2,3-d]pyrimidin-7-yl)-2-fluoro-2-(hydroxymethyl)tetrahydrofuran-3,4-diol] |  | < 1 µM | > 7.00 | 6.00 to 7.00 | 1 to 10 µM | < 5.00 | < 1 µM |  | 1 to 10 µM | < 1 µM | < 5.00 | 1 to 10 µM | > 7.00 | < 1 µM | > 7.00 | > 7.00 | 5.00 to 6.00 |  |
| O=c1[nH]cnc2c1c(F)cn2[C@@H]1O[C@](F)(CO)[C@@H](O)[C@H]1O [Example 21, 5-fluoro-7-((2R,3R,4S,5S)-5-fluoro-3,4-dihydroxy-5-(hydroxymethyl)tetrahydrofuran-2-yl)-3,7-dihydro-4H-pyrrolo[2,3-d]pyrimidin-4-one] | < 5.00 | > 99 µM | < 5.00 | < 5.00 |  | < 5.00 | > 99 µM | < 5.00 | > 99 µM | > 99 µM | < 5.00 | > 99 µM | < 5.00 | > 99 µM | < 5.00 | < 5.00 |  |  |
| COc1ncnc2c1c(F)cn2[C@@H]1O[C@](F)(CO)[C@@H](O)[C@H]1O [Example 22, (2S,3S,4R,5R)-2-fluoro-5-(5-fluoro-4-methoxy-7H-pyrrolo[2,3-d]pyrimidin-7-yl)-2-(hydroxymethyl)tetrahydrofuran-3,4-diol] | 6.00 to 7.00 | 1 to 10 µM |  |  | > 99 µM | < 5.00 |  | 5.00 to 6.00 | 10 to 99 µM | 10 to 99 µM | < 5.00 |  | 5.00 to 6.00 | 1 to 10 µM | 6.00 to 7.00 | < 5.00 | 5.00 to 6.00 |  |
| NC(=O)c1cn([C@@H]2O[C@](F)(CO)[C@@H](O)[C@H]2O)c2ncncc12 [Example 24, 7-((2R,3R,4S,5S)-5-fluoro-3,4-dihydroxy-5-(hydroxymethyl)tetrahydrofuran-2-yl)-7H-pyrrolo[2,3-d]pyrimidine-5-carboxamide] | 6.00 to 7.00 | 1 to 10 µM | 6.00 to 7.00 | < 5.00 | 10 to 99 µM | 6.00 to 7.00 | 10 to 99 µM | 6.00 to 7.00 | 10 to 99 µM | 10 to 99 µM | 5.00 to 6.00 | > 99 µM | 6.00 to 7.00 | 1 to 10 µM | > 7.00 | < 5.00 | < 5.00 |  |
| OC[C@@]1(F)O[C@@H](n2cc(Br)c3cncnc32)[C@H](O)[C@@H]1O [Example 25, (2S,3S,4R,5R)-5-(5-bromo-7H-pyrrolo[2,3-d]pyrimidin-7-yl)-2-fluoro-2-(hydroxymethyl)tetrahydrofuran-3,4-diol] | > 7.00 | < 1 µM | 6.00 to 7.00 | < 5.00 | > 99 µM | 6.00 to 7.00 | < 1 µM | > 7.00 | 10 to 99 µM | 1 to 10 µM | < 5.00 | > 99 µM | 6.00 to 7.00 | < 1 µM | > 7.00 | < 5.00 | 5.00 to 6.00 |  |
| Nc1ncnc2c1c(Cl)cn2[C@@H]1O[C@](F)(CO)[C@@H](O)[C@H]1O [Example 33, (2S,3S,4R,5R)-5-(4-amino-5-chloro-7H-pyrrolo[2,3-d]pyrimidin-7-yl)-2-fluoro-2-(hydroxymethyl)tetrahydrofuran-3,4-diol] |  | < 1 µM | 6.00 to 7.00 | < 5.00 | 10 to 99 µM | > 7.00 | < 1 µM |  | 10 to 99 µM | 1 to 10 µM | < 5.00 | 10 to 99 µM | > 7.00 | 1 to 10 µM | > 7.00 | < 5.00 | 6.00 to 7.00 |  |
| CC(C)OC(=O)[C@H](C)N[P@](=O)(OC[C@@]1(F)O[C@@H](n2ccc3c(N)ncnc32)[C@H](O)[C@@H]1O)Oc1ccccc1 [Example 48, isopropyl ((S)-(((2S,3S,4R,5R)-5-(4-amino-7H-pyrrolo[2,3-d]pyrimidin-7-yl)-2-fluoro-3,4-dihydroxytetrahydrofuran-2-yl)methoxy)(phenoxy)phosphoryl)-L-alaninate] | 5.00 to 6.00 | 10 to 99 µM |  |  |  |  |  | 5.00 to 6.00 |  | 10 to 99 µM | 5.00 to 6.00 |  | 5.00 to 6.00 | 10 to 99 µM | 6.00 to 7.00 | 5.00 to 6.00 |  |  |
| NC(=O)c1ncn([C@@H]2O[C@H](CO)[C@@H](O)[C@H]2O)n1 [Ribavirin] |  |  |  |  |  |  |  |  |  |  |  |  |  |  |  |  |  | adverse effects induced [19]: induced anemia and thrombocytosis; inhibition of dengue 2′-0-methyltransferase NS5 domain [20]: inhibiting; protection against dengue, rhesus monkey model [21]: did not show protection; protection against dengue, mouse model [22]: did not show protection; activity against dengue in tissue culture [23]: works against dengue in tissue culture; effect against a range of RNA virus infections [24]: effective |
